Laboratory results reported in patent US10047051B2, “Substituted pyridines and method of use” (AbbVie S.á{acute over (.)}r.l., priority 2015, dated 2018).

Target: T1, CFTR ΔF508 mutant (Homo sapiens, UniProt P13569, DEL508-508)
T1 construct: expressed in transfected cells; host or cells: CFBE41o- cells, adenoviral transduction
Assay: YFP-halide influx assay for the CFTR-ΔF508 mutation (CFBE41o- cells)
Assay type: cell-based
Conditions: forskolin 10.67 μM; for EC50: from (1−F/F0) vs concentration plot
Excerpt: The YFP halide influx assay measured the functionality of the cystic fibrosis Transmembrane Conductance regulator (CFTR) channels in the cystic fibrosis bronchial epithelium cell line CFBE41o-. The assay was used to evaluate the capacity of compounds to increase the open probability of existing CFTR channels in the membrane. It makes use of the observation that the yellow fluorescent protein (YFP) variant YFP H148Q, I152L, F47L has its fluorescence substantially quenched by halide ions like Cl^− and I^− (Galietta, L. J. V., Haggie, P. M., Verkman, A. S., 2001. Green fluorescent protein-based halide indicators with improved chloride and iodide affinities. FEBS Lett. 499, 220-224. doi:10.1016/S0014-5793(01)02561-3; Nagai, T., Ibata, K., Park, E. S., Kubota, M., Mikoshiba, K., Miyawaki, A., 2002. A variant of yellow fluorescent protein with fast and efficient maturation for cell-biological applications. Nat. Biotechnol. 20, 87-90. doi: 10.1038/nbt0102-87).
For this purpose, CFBE41o-cells were seeded in 384 well plates (3000 CFBE cells/well). One day after seeding, the CFBE cells were transduced with adenoviral vectors that direct the expression of the CFTR ΔF508 mutant and of the YFP reporter. Cells were incubated at 27° C., 5% CO2 for 24 hours so as to allow for the proper folding and migration to the membrane of the CFTR channel or treated with a CFTR modulator during 24 hours at 37° C.
The I-induced quenching of fluorescence was recorded on an immediately after injection of iodide for 2 minutes on an FDSS/μCell (Hamamatsu). The capacity of a compound to increase the channel opening was directly correlated with the decrease in fluorescence, and was expressed as (1−(fluorescence after 36 seconds (F)/fluorescence before injection (F0))) and an EC50 was derived from a (1−F/F0) vs compound concentration plot.

T1 sequence (P13569 with tags, fused parts or gaps DEL508-508): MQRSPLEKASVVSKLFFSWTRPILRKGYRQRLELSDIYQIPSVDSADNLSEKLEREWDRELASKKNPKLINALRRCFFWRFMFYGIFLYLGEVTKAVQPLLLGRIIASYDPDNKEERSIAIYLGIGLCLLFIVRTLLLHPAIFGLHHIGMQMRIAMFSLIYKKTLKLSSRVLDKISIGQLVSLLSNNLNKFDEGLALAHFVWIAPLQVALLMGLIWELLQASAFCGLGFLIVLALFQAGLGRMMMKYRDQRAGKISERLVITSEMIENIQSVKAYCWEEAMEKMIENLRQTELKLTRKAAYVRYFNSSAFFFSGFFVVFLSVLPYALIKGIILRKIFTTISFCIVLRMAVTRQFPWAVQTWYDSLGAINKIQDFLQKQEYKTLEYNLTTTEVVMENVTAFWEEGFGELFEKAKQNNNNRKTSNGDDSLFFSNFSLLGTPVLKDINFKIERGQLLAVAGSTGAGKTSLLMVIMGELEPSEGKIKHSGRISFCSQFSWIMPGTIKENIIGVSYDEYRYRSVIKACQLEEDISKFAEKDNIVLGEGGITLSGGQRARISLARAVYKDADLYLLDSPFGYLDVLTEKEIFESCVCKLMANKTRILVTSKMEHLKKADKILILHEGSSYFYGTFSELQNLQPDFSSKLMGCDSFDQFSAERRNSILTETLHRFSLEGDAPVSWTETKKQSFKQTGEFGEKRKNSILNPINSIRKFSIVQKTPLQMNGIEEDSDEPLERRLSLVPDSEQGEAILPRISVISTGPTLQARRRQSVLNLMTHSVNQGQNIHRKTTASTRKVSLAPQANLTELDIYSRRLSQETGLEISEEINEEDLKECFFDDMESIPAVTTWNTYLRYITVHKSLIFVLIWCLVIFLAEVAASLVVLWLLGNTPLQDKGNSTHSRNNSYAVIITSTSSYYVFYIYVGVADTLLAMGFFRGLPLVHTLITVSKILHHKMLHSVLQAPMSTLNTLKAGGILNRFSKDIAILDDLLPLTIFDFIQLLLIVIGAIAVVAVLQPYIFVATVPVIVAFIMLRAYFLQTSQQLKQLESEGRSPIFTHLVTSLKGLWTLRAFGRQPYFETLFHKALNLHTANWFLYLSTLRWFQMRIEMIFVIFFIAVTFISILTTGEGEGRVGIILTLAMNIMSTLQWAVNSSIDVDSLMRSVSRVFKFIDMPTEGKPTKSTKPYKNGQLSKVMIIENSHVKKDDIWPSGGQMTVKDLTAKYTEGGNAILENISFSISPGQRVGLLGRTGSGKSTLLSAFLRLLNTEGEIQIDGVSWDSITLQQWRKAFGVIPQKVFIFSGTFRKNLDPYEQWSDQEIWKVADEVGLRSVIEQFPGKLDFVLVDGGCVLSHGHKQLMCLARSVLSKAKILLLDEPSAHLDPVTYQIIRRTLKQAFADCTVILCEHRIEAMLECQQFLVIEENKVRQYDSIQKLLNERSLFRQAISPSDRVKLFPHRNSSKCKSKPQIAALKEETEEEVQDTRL

SMILES | % Activation [%] | EC50 [nM]
Cc1ccc(C(CO)NC(=O)c2ncc(S(=O)(=O)c3ccc(OC(F)(F)F)cc3)cc2N)cc1 (stereo not drawn) [Compound 41, 3-amino-N-[2-hydroxy-1-(4-methylphenyl)ethyl]-5-{[4-(trifluoromethoxy)phenyl]sulfonyl}pyridine-2-carboxamide] | 101.0 | 184
CCNC(=O)C(C)NC(=O)c1ncc(S(=O)(=O)c2ccc(OC(F)(F)F)cc2)cc1N (stereo not drawn) [Compound 43, 3-amino-N-[1-(ethylamino)-1-oxopropan-2-yl]-5-{[4-(trifluoromethoxy)phenyl]sulfonyl}pyridine-2-carboxamide] | 92.6 | 236
Nc1cc(S(=O)(=O)c2ccc(OC(F)(F)F)cc2)cnc1C(=O)NC(CO)CO [Compound 44, 3-amino-N-(1,3-dihydroxypropan-2-yl)-5-{[4-(trifluoromethoxy)phenyl]sulfonyl}pyridine-2-carboxamide] | 73.9 | 323
Nc1cc(S(=O)(=O)c2ccc(OC(F)(F)F)cc2)cnc1C(=O)NCCCCO [Compound 45, 3-amino-N-(4-hydroxybutyl)-5-{[4-(trifluoromethoxy)phenyl]sulfonyl}pyridine-2-carboxamide] | 93.6 | 83.7
CNC(=O)[C@@H](NC(=O)c1ncc(S(=O)(=O)c2ccc(OC(F)(F)F)cc2)cc1N)C(C)(C)C [Compound 47, 3-amino-N-[(2S)-3,3-dimethyl-1-(methylamino)-1-oxobutan-2-yl]-5-{[4-(trifluoromethoxy)phenyl]sulfonyl}pyridine-2-carboxamide] | 84.8 | 503
CCNC(=O)CNC(=O)c1ncc(S(=O)(=O)c2ccc(OC(F)(F)F)cc2)cc1N [Compound 48, 3-amino-N-[2-(ethylamino)-2-oxoethyl]-5-{[4-(trifluoromethoxy)phenyl]sulfonyl}pyridine-2-carboxamide] | 103.0 | 21.1
CC(C)[C@H](NC(=O)c1ncc(S(=O)(=O)c2ccc(OC(F)(F)F)cc2)cc1N)C(N)=O [Compound 49, 3-amino-N-[(2S)-1-amino-3-methyl-1-oxobutan-2-yl]-5-{[4-(trifluoromethoxy)phenyl]sulfonyl}pyridine-2-carboxamide] | 132.0 | 125
CC(CC(N)=O)NC(=O)c1ncc(S(=O)(=O)c2ccc(OC(F)(F)F)cc2)cc1N (stereo not drawn) [Compound 55, 3-amino-N-(4-amino-4-oxobutan-2-yl)-5-{[4-(trifluoromethoxy)phenyl]sulfonyl}pyridine-2-carboxamide] | 37.6 | > 2000
CC(C)C[C@H](NC(=O)c1ncc(S(=O)(=O)c2ccc(OC(F)(F)F)cc2)cc1N)C(N)=O [Compound 56, N^2-[(3-amino-5-{[4-(trifluoromethoxy)phenyl]sulfonyl}pyridin-2-yl)carbonyl]-L-leucinamide] | 99.4 | 369
CC[C@H](NC(=O)c1ncc(S(=O)(=O)c2ccc(OC(F)(F)F)cc2)cc1N)C(N)=O [Compound 93, 3-amino-N-[(2S)-1-amino-1-oxobutan-2-yl]-5-{[4-(trifluoromethoxy)phenyl]sulfonyl}pyridine-2-carboxamide] | 96.5 | 95.5
COc1ccc(C(CO)NC(=O)c2ncc(S(=O)(=O)c3ccc(OC(F)(F)F)cc3)cc2N)cc1 (stereo not drawn) [Compound 96, 3-amino-N-[2-hydroxy-1-(4-methoxyphenyl)ethyl]-5-{[4-(trifluoromethoxy)phenyl]sulfonyl}pyridine-2-carboxamide] | 105.0 | 245
Nc1cc(S(=O)(=O)c2ccc(OC(F)(F)F)cc2)cnc1C(=O)NC1(C(F)(F)F)CCOCC1 [Compound 193, 3-amino-5-{[4-(trifluoromethoxy)phenyl]sulfonyl}-N-[4-(trifluoromethyl)tetrahydro-2H-pyran-4-yl]pyridine-2-carboxamide] | 26.7 | > 2000
